Experiments:
[1] = target: T1, rat pituitary cells (Rattus norvegicus, UniProt P30969); test: LH inhibition from rat pituitary cells for antagonist potency (pA2); assay type: cell-based; details: negative log of antagonist concentration shifting the leuprolide response curve to two-fold higher concentration
T1 construct: endogenous in cells; host or cells: rat pituitary cells
T1 sequence (P30969 1-327): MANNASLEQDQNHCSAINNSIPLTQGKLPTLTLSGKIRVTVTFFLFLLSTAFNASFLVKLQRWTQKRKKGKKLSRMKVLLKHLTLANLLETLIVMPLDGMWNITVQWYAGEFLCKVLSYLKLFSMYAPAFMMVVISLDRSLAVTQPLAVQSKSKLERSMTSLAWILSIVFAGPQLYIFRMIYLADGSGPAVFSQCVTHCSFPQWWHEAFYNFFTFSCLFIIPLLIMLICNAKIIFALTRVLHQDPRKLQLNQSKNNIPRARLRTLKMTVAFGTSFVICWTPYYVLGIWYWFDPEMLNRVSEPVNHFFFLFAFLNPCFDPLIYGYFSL
Description: Representative compounds of the present invention were evaluated in in vitro tests for LHRH rat pituitary receptor binding (pKI) and for LH inhibition from rat pituitary cells for antagonist potency (pA2). The tests employed the methods detailed in F. Haviv, et al. J. Med. Chem., 2340-2344 (1989). The receptor binding affinity (pKI) is the negative equilibrium dissociation constants.
The pA2 value is the negative logarithm of the concentration of antagonist which shifts the response curve produced by the agonist leuprolide to two-fold higher concentration. Leuprolide is the LHRH agonist having the structure pyro-Glu^1 -His^2 -Trp^3 -Ser^4 -Tyr^5 -D-Leu^6 -Leu^7 -Arg^8 -Pro^9 -NHEt and is disclosed and claimed in U.S. Pat. No. 4,005,063. Typically pA2 values of 7.0 or greater are indicative of good LHRH antagonist potency.

[2] = target: T2, LHRH rat pituitary receptor (Rattus norvegicus, UniProt P30969); test: LHRH rat pituitary receptor binding (pKI); details: in vitro; for Ki: read-out: pKI (receptor binding affinity) (converted)
T2 construct: from tissue; host or cells: rat pituitary
T2 sequence (P30969 1-327): T1 sequence (P30969 1-327)
Description: Representative compounds of the present invention were evaluated in in vitro tests for LHRH rat pituitary receptor binding (pKI) and for LH inhibition from rat pituitary cells for antagonist potency (pA2). […] The receptor binding affinity (pKI) is the negative equilibrium dissociation constants.

Compound	Kb [1]	Ki [2]	pKI (receptor binding affinity) [2]	pA2 [1]
CC[C@H]1OC(=O)[C@H](C)[C@@H](O[C@H]2C[C@@](C)(OC)[C@@H](O)[C@H](C)O2)[C@H](C)[C@@H](O[C@@H]2O[C@H](C)C[C@H](N(C3CCC3)C3CCC3)[C@H]2O)[C@](C)(OC)C[C@@H](C)C(=O)[C@H](C)[C@H]2N(CCc3ccc(Cl)c(Cl)c3)C(=O)O[C@]12C [Example 2]	5.37 nM	3.16 nM	–	–
CC[C@H]1OC(=O)[C@H](C)[C@@H](O[C@H]2C[C@@](C)(OC)[C@@H](O)[C@H](C)O2)[C@H](C)[C@@H](O[C@@H]2O[C@H](C)C[C@H](N(CC3CC3)CC3CC3)[C@H]2O)[C@](C)(OC)C[C@@H](C)C(=O)[C@H](C)[C@H]2N(CCc3ccc(F)c(F)c3)C(=O)O[C@]12C [Example 17, 3',3'-N-Bisdesmethyl-3',3'-N-biscyclopropylmethyl-11-deoxy-11-[carboxy-(3,4-difluorophenethylamino)]-6-O-methyl-erytromycin A 11,12-(cyclic carbamate)]	1.55 nM	3.16 nM	–	–
CC[C@H]1OC(=O)[C@H](C)[C@@H](O[C@H]2C[C@@](C)(OC)[C@@H](O)[C@H](C)O2)[C@H](C)[C@@H](O[C@@H]2O[C@H](C)C[C@H](N(C3CCC3)C3CCC3)[C@H]2O)[C@](C)(OC)C[C@@H](C)C(=O)[C@H](C)[C@H]2N(CCc3ccc(Cl)cc3)C(=O)O[C@]12C [Example 4, 3',3'-N-Bisdesmethyl-3',3'-N-biscyclobutyl-11-deoxy-11-[carboxy-(4-chlorophenethylamino)]-6-O-methyl-erythromycin A 11,12-(cyclic carbamate)]	0.126 nM	2.4 nM	–	–
CC[C@H]1OC(=O)[C@H](C)[C@@H](O[C@H]2C[C@@](C)(OC)[C@@H](O)[C@H](C)O2)[C@H](C)[C@@H](O[C@@H]2O[C@H](C)C[C@H](N(C3CCC3)C3CCC3)[C@H]2O)[C@](C)(OC)C[C@@H](C)C(=O)[C@H](C)[C@H]2N(CCc3ccc(F)c(Cl)c3)C(=O)O[C@]12C [Example 14, 3',3'-N-Bisdesmethyl-3',3'-N-biscyclobutyl-11-deoxy-11-[carboxy-(3-chloro-4-fluorophenethylamino)]-O-methyl-erythromycin A 11,12-(cyclic carbamate)]	0.759 nM	0.251 nM	–	–
CC[C@H]1OC(=O)[C@H](C)[C@@H](O[C@H]2C[C@@](C)(OC)[C@@H](O)[C@H](C)O2)[C@H](C)[C@@H](O[C@@H]2O[C@H](C)C[C@H](N(CC3CC3)C(C)C)[C@H]2O)[C@](C)(OC)C[C@@H](C)C(=O)[C@H](C)[C@H]2N(CCc3ccc(Cl)cc3)C(=O)O[C@]12C [Example 7, 3',3'-N-Bisdesmethyl-3'-N-cyclopropylmethyl-3'-N-isopropyl-11-deoxy-11-carboxy-(4-chlorophenethylamino)]-6-O-methyl-erythromycin A 11,12-(cyclic carbamate)]	–	–	8.56	–
3',3'-N-Bisdesmethyl-3'-N-cyclopropylmethyl-3'-N-(4hydroxymethyl-2-furyl)methyl-11-deoxy-11-[carboxy-(3-chloro-4-fluorophenethylamino)]-6-O-methyl-erythromycin A 11,12-(cyclic carbamate) [Example 23]	–	–	8.98	–
3',3'-N-Bisdesmethyl-3',3'-N-biscyclobutyl-11-deoxy-11-[carboxy-(3,4-difluorophenethylamino)]-6-O-methyl-erythromycin A 11,12-(cyclic carbamate) [Example 18]	–	–	9.40	8.34
3',3'-N-Bisdesmethyl-3'-N-cyclopentyl-3'-N-cyclopropylmethyl-11-deoxy-11-[carboxy-(3-chloro-4-fluorophenethylamino)]-6-O-methyl-erythromycin A 11,12-(cyclic carbamate) [Example 16]	–	–	8.87	–
CC[C@H]1OC(=O)[C@H](C)[C@@H](O[C@H]2C[C@@](C)(OC)[C@@H](O)[C@H](C)O2)[C@H](C)[C@@H](O[C@@H]2O[C@H](C)C[C@H](N(CCCc3ccncc3)CC3CC3)[C@H]2O)[C@](C)(OC)C[C@@H](C)C(=O)[C@H](C)[C@H]2N(CCc3ccc(Cl)c(Cl)c3)C(=O)O[C@]12C [Example 22, 3',3'-N-Bisdesmethyl-3'-N-cyclopropylmethyl-3'-N-[3-(4-pyridyl)propyl]-11-deoxy-11-[carboxy-(3,4-dichlorophenethylamino)]-6-O-methyl-erythromycin A 11,12-(cyclic carbamate)]	–	1.91 nM	–	–
CC[C@H]1OC(=O)[C@H](C)[C@@H](O[C@H]2C[C@@](C)(OC)[C@@H](O)[C@H](C)O2)[C@H](C)[C@@H](O[C@@H]2O[C@H](C)C[C@H](N(C(C)C)C3CCC3)[C@H]2O)[C@](C)(OC)C[C@@H](C)C(=O)[C@H](C)[C@H]2N(CCc3ccc(Cl)cc3)C(=O)O[C@]12C [Example 5, 3',3'-N-Bisdesmethyl-3'-N-cyclobutyl-3'-N-isopropyl-11-deoxy-11-[carboxy-(4-chlorophenethylamino)]-6-O-methyl-erythromycin A 11,12-(cyclic carbamate)]	0.832 nM	0.832 nM	–	–
CC[C@H]1OC(=O)[C@H](C)[C@@H](O[C@H]2C[C@@](C)(OC)[C@@H](O)[C@H](C)O2)[C@H](C)[C@@H](O[C@@H]2O[C@H](C)C[C@H](N(CC3CC3)CC3CC3)[C@H]2O)[C@](C)(OC)C[C@@H](C)C(=O)[C@H](C)[C@H]2N(CCc3ccc(Cl)c(F)c3)C(=O)O[C@]12C [Example 13, 3',3'-N-Bisdesmethyl-3',3'-N-biscyclopropylmethyl-11-deoxy-11-[carboxy-(4-chloro-3-fluorophenethylamino)]-6-O-methyl-erythromycin A 11,12-(cyclic carbamate)]	0.295 nM	1.15 nM	–	–

Reference: patent publication US5972898A, “3',3-N-bis-substituted macrolide LHRH antagonists” (Abbott Laboratories, priority 1998, dated 1999)
